# Results reported in patent US5082771A, “Detecting cells using tellurapyrylium dihydroxides” (Eastman Kodak Company, priority 1989, dated 1992).
# Columns and labels:
# [1] = Maximum absorption and extinction coefficient of the Te(IV) dihydroxides in water; type: physicochemical; settings: for extinction coefficient (ε): at λmax
# Description: The maximum absorption and extinction coefficient for the compounds in water is listed below: […]
# [2] = Stability (half life) at 37° C. at various pH values; type: physicochemical
# Description: The stability of the dihydroxycompounds used in this invention is generally very good.
# E. Coli [3] = assay: Absorption spectra over time of a system comprising E. Coli and a tellurium (IV) dihydroxide (FIG. 1); type: cell-based; settings: for absorption maximum: FIG. 1, system comprising E. Coli
# Description: FIG. 1 comprises a series of plots showing the change, over time, of the absorption spectrum of a system comprising E. Coli. and a tellurium (IV) dihydroxide. More specifically, the series of plots follows the reduction: [drawing 1] as a function of time.
# Over time, as the E. Coli reduces the tellurium (IV) dihydroxide. i.e., the TPDH. the absorption at 510 nm diminishes until it becomes non existent. As the absorption diminishes at 510 nm, a much more intense absorption peak at about 820 nm arises. In other words, the extinction coefficient for the absorption maximum of the TPDH is mu:h less than the extinction coefficient for the absorption maximum for the reduction product. Stated another way, the extinction coefficient for the absorption peak of the reduction product is much greater than the extinction coefficient for the absorption peak of the TPDH.
# The time interval between each spectophometric tracing in FIG. 1 is about 30 seconds.
# E. Coli [4] = assay: Reduction of Te/Te Dye by suspension of E. Coli cells, change in optical density as a function of time (Example 2); type: cell-based; settings: 1 × 10^-4 M, pH about 7.8
# Description: The final concentration of the TPDN was about 1×10^-4 molar after dilution.
# The stock solutions of the TPDH can be prepared in a concentration within the range of from about 5×10^-2 and about 5×10^-4 molar.
compound,measurement,setting,value
CC(C)(C)C1=CC(=CC=Cc2cc(C(C)(C)C)[s+]c(C(C)(C)C)c2)C=C(C(C)(C)C)[Te]1(O)O [Te/S Dye],maximum absorption (λmax),[1],480 nm
same,extinction coefficient (ε),[1],"52,000"
CC(C)(C)C1=CC(=CC=Cc2cc(C(C)(C)C)[se+]c(C(C)(C)C)c2)C=C(C(C)(C)C)[Te]1(O)O [Te/Se Dye],maximum absorption (λmax),[1],502 nm
same,extinction coefficient (ε),[1],"55,000"
CC(C)(C)C1=CC(=CC=Cc2cc(C(C)(C)C)[te+]c(C(C)(C)C)c2)C=C(C(C)(C)C)[Te]1(O)O [drawing 16],half-life,[2]; pH 4.58,3.5 h
same,half-life,[2]; pH 5.98,4.5 h
same,half-life,"[2]; pH 7.4, pH 7.40",12 h
same,half-life,"[2]; pH 8.5, pH 8.50",12 h
same,half-life,[2]; pH 9.03,8.5 h
same,half-life,"[2]; pH 10.2, pH 10.20",8 h
same,half-life,[2]; pH 11.98,6.3 h
"CC(C)(C)C1=CC(=CC=Cc2cc(C(C)(C)C)[te+]c(C(C)(C)C)c2)C=C(C(C)(C)C)[Te]1(O)O [Te/Te Dye, 4[3[2,6-bis(1,1-dimethylethyl)-tellurinium-4-yl]-2-propenylidene]-1,1-dihydroxy-2,6-bis(1,1-dimethylethyl)-1,1-dihydro-4H-tellurin chloride]",maximum absorption (λmax),[1],510 nm
same,extinction coefficient (ε),[1],"56,000"
same,absorption at about 820 nm,"E. Coli [3]; FIG. 1, before reduction",practically no absorption
same,absorption maximum,E. Coli [3],about 510 nm
same,absorption at about 510 nm after reduction by E. Coli,"E. Coli [3]; over time, tracings about every 30 seconds",non existent
same,Optical Density (O.D.) @ 820 nm,"E. Coli [4]; 10^5 Cells/mL, 0.0 s",0.05
same,Optical Density (O.D.) @ 820 nm,"E. Coli [4]; 10^5 Cells/mL, 60 s",0.15
same,Optical Density (O.D.) @ 820 nm,"E. Coli [4]; 10^5 Cells/mL, 120 s",0.90
same,Optical Density (O.D.) @ 820 nm,"E. Coli [4]; 10^5 Cells/mL, 180 s",0.65
same,Optical Density (O.D.) @ 820 nm,"E. Coli [4]; 10^5 Cells/mL, 240 s",0.89
same,Optical Density (O.D.) @ 820 nm,"E. Coli [4]; 10^5 Cells/mL, 300 s",0.98
same,Optical Density (O.D.) @ 820 nm,"E. Coli [4]; 10^5 Cells/mL, 360 s",1.13
same,Optical Density (O.D.) @ 820 nm,"E. Coli [4]; 10^5 Cells/mL, 420 s",1.18
same,Optical Density (O.D.) @ 820 nm,"E. Coli [4]; 10^5 Cells/mL, 480 s",1.23
same,Optical Density (O.D.) @ 820 nm,"E. Coli [4]; 10^5 Cells/mL, 540 s",1.24
same,Optical Density (O.D.) @ 820 nm,"E. Coli [4]; 10^6 Cells/mL, 0.0 s",0.05
same,Optical Density (O.D.) @ 820 nm,"E. Coli [4]; 10^6 Cells/mL, 30 s",0.10
same,Optical Density (O.D.) @ 820 nm,"E. Coli [4]; 10^6 Cells/mL, 60 s",0.32
same,Optical Density (O.D.) @ 820 nm,"E. Coli [4]; 10^6 Cells/mL, 120 s",0.63
same,Optical Density (O.D.) @ 820 nm,"E. Coli [4]; 10^6 Cells/mL, 150 s",0.84
same,Optical Density (O.D.) @ 820 nm,"E. Coli [4]; 10^6 Cells/mL, 210 s",1.15
same,Optical Density (O.D.) @ 820 nm,"E. Coli [4]; 10^6 Cells/mL, 270 s",1.46
same,Optical Density (O.D.) @ 820 nm,"E. Coli [4]; 10^6 Cells/mL, 300 s",1.60
same,Optical Density (O.D.) @ 820 nm,"E. Coli [4]; 10^6 Cells/mL, 330 s",1.73
same,Optical Density (O.D.) @ 820 nm,"E. Coli [4]; 10^6 Cells/mL, 390 s",2.00
"CC(C)(C)C1=CC(=CC=Cc2cc(C(C)(C)C)[te+]c(C(C)(C)C)c2)C=C(C(C)(C)C)[Te]1 [compound (b), 4-[3-[2,6-bis(1,1-dimethylethyl-4H-tellurin-4-ylidene]-1-propenyl]-2,6-bis(1,1-dimethylethyl) -tellurinium chloride]",absorption maximum,E. Coli [3],about 820 nm
